Broadly, the Ki is a dissociation constant, usually derived from enzyme kinetics or from competition with a known ligand.

The target in one test is Carbonic anhydrase 2 (Homo sapiens, UniProt P00918).
Another test concerns the target Carbonic anhydrase 9 (Homo sapiens, UniProt Q16790). The test is described as follows: Inhibition of human recombinant CA9 catalytic domain by stopped-flow CO2 hydration method.
A further test deals with Carbonic anhydrase 1 (Homo sapiens, UniProt P00915). The test is described as follows: Inhibition of full length human CA1 cytosolic isoform by stopped-flow CO2 hydration method.
Carbonic anhydrase 1, sequence (P00915 whole entry, canonical isoform): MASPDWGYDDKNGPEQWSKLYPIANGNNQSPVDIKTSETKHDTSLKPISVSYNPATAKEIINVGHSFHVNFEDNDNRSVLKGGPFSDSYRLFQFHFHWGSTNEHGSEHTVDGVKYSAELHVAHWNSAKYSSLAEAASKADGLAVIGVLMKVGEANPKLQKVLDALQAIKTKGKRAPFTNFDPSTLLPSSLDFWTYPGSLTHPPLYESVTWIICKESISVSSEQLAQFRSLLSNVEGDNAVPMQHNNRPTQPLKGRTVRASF

As for `CCC(=O)c1cc2ccc(=O)oc2cc1O`, the values for the Ki at Carbonic anhydrase 2 and at Carbonic anhydrase 9 were above 100 µM and 8.02 µM, respectively.

For the compound `CCOc1ccc2ccc(=O)oc2c1C(C)=O`, the Ki was above 100 µM on Carbonic anhydrase 1, above 100 µM at Carbonic anhydrase 2 and 0.0708 µM at Carbonic anhydrase 9.

As to `CCOc1cc2oc(=O)ccc2cc1C(C)=O`, the figures for the Ki on Carbonic anhydrase 1 and at Carbonic anhydrase 9 were above 100 µM and 7.4 µM, respectively.

In the case of `CC(=O)c1c(OCc2ccccc2)ccc2ccc(=O)oc12`, the figures for the Ki on Carbonic anhydrase 1 and at Carbonic anhydrase 9 were above 100 µM and 0.0723 µM, respectively.

Take `CC(=O)c1cc2ccc(=O)oc2cc1O`: the Ki at Carbonic anhydrase 2 was above 100 µM.

In the case of `CCCOc1ccc2ccc(=O)oc2c1C(C)=O`, the Ki on Carbonic anhydrase 1 was above 100 µM; on Carbonic anhydrase 2 it was above 100 µM; on Carbonic anhydrase 9, 0.0567 µM.

For the compound `CC(=O)c1c(O)ccc2ccc(=O)oc12`, the Ki on Carbonic anhydrase 1 is above 100 µM; on Carbonic anhydrase 2, above 100 µM; at Carbonic anhydrase 9 it was 0.073 µM.

For the compound `CC(=O)c1c(OCCC23CC4CC(CC(C4)C2)C3)ccc2ccc(=O)oc12`, the values for the Ki at Carbonic anhydrase 1, on Carbonic anhydrase 2 and on Carbonic anhydrase 9 were above 100 µM, above 100 µM and 0.0639 µM, respectively.

Turning to `CCCOc1cc2oc(=O)ccc2cc1C(C)=O`, the Ki is above 100 µM on Carbonic anhydrase 1, above 100 µM at Carbonic anhydrase 2 and 7.58 µM at Carbonic anhydrase 9.

As to `CCC(=O)c1c(OC)ccc2ccc(=O)oc12`, the Ki is above 100 µM on Carbonic anhydrase 1, above 100 µM on Carbonic anhydrase 2 and 0.0378 µM at Carbonic anhydrase 9.

Turning to `CCC(=O)c1c(O)ccc2ccc(=O)oc12`, the Ki at Carbonic anhydrase 1 and at Carbonic anhydrase 2 was above 100 µM throughout.

`CCCCOc1ccc2ccc(=O)oc2c1C(C)=O`: the inhibition constant Ki on Carbonic anhydrase 1 and on Carbonic anhydrase 2 was above 100 µM each time.

With `CC(=O)c1cc2ccc(=O)oc2cc1OCCC12CC3CC(CC(C3)C1)C2`, the Ki on Carbonic anhydrase 1, on Carbonic anhydrase 2 and at Carbonic anhydrase 9 was above 100 µM throughout.

`CCCOc1ccc2ccc(=O)oc2c1C(=O)CC`: the Ki on Carbonic anhydrase 1 and on Carbonic anhydrase 2 was above 100 µM in each case.

`COc1cc2oc(=O)ccc2cc1C(C)=O`: the values for the Ki at Carbonic anhydrase 1, at Carbonic anhydrase 2 and at Carbonic anhydrase 9 were above 100 µM, above 100 µM and 7.8 µM, respectively.

In the case of `CCOc1ccc2ccc(=O)oc2c1C(=O)CC`, the figures for the Ki on Carbonic anhydrase 1, on Carbonic anhydrase 2 and on Carbonic anhydrase 9 were above 100 µM, above 100 µM and 0.0467 µM, respectively.

Regarding `CC(=O)c1cc2ccc(=O)oc2cc1OCc1ccccc1`, the Ki at Carbonic anhydrase 1 and at Carbonic anhydrase 9 was above 100 µM in each case.

For `CCCCOc1cc2oc(=O)ccc2cc1C(C)=O`, the Ki on Carbonic anhydrase 1, at Carbonic anhydrase 2 and on Carbonic anhydrase 9 was above 100 µM throughout.

Consider `COc1ccc2ccc(=O)oc2c1C(C)=O`, for which the Ki at Carbonic anhydrase 1 is above 100 µM; on Carbonic anhydrase 2 it was above 100 µM; on Carbonic anhydrase 9, 0.0783 µM.

(Values after ChEMBL document CHEMBL1287777 (Bioorg Med Chem Lett, 2010).)
